Test results as given in article PMC7827406, “Structure–Activity Relationship (SAR) Study of Spautin-1 to Entail the Discovery of Novel NEK4 Inhibitors” (International Journal of Molecular Sciences, 2021).
Where two headings read alike, the source gives them in different places.

Columns and labels:
Test in all cases: biochemical
Parameters in all cases: Eurofins KinaseProfiler full panel at Km ATP, residual kinase activity (%) relative to DMSO
Blk(m) = Blk(m) (Mus musculus, UniProt P16277)
How it was run: (§1)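 Two 10 µM single-concentration screens were run: a competition-binding screen, in which DNA-tagged kinase bound to immobilized ligands was quantified by qPCR, and a radiometric activity panel at Km ATP. Each is expressed as residual kinase activity (%).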

EphA3(h) = biological target: T1, EphA3(h) (Homo sapiens, UniProt P29320)
T1 sequence (P29320 1-983): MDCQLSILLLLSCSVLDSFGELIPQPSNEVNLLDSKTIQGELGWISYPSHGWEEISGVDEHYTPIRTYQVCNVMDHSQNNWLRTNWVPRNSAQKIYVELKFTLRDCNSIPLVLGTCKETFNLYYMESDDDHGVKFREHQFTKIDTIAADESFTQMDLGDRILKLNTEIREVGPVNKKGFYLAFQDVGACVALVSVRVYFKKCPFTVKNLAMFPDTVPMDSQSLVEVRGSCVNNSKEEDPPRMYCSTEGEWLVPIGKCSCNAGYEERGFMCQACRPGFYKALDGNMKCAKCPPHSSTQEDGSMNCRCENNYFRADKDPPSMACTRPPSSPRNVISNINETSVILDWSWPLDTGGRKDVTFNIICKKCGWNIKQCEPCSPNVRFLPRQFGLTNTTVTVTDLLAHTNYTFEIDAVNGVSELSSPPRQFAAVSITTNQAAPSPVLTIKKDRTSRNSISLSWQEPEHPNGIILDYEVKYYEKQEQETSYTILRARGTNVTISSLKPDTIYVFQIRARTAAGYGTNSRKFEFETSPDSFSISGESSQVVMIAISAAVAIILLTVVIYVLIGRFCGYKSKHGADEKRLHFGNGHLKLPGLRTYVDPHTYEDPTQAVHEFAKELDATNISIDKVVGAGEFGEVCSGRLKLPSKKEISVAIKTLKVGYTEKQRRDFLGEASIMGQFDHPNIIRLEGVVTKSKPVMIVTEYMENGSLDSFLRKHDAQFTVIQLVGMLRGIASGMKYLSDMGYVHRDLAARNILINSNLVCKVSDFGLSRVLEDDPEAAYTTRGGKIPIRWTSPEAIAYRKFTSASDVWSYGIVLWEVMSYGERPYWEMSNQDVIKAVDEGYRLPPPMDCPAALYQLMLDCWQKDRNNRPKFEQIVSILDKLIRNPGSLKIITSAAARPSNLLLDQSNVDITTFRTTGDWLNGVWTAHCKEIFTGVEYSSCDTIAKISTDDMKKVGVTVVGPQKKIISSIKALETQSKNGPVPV
How it was run: as §1

Arg(h) = biological target: T2, Arg(h) (Homo sapiens, UniProt P42684)
T2 construct: gene ABL2
How it was run: as §1

DYRK3(h) = biological target: T3, DYRK3(h) (Homo sapiens, UniProt O43781)
T3 sequence (O43781 1-588): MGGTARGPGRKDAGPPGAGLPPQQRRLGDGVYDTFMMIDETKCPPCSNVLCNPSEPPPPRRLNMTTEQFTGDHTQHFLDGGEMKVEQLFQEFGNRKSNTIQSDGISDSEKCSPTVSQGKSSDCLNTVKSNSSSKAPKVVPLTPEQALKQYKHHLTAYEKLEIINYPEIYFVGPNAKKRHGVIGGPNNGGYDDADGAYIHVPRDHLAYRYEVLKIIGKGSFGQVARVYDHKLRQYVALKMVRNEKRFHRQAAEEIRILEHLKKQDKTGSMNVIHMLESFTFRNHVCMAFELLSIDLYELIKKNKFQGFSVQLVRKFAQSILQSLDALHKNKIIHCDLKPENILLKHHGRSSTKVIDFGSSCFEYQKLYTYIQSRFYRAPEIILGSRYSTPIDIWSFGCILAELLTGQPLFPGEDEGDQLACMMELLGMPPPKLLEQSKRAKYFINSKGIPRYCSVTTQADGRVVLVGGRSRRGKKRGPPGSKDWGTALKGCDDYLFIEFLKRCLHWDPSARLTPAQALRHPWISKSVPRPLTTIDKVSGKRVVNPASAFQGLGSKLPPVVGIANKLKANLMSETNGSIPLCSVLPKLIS
How it was run: as §1

PrKX(h) = biological target: T4, PrKX(h) (Homo sapiens, UniProt P51817)
T4 sequence (P51817 1-358): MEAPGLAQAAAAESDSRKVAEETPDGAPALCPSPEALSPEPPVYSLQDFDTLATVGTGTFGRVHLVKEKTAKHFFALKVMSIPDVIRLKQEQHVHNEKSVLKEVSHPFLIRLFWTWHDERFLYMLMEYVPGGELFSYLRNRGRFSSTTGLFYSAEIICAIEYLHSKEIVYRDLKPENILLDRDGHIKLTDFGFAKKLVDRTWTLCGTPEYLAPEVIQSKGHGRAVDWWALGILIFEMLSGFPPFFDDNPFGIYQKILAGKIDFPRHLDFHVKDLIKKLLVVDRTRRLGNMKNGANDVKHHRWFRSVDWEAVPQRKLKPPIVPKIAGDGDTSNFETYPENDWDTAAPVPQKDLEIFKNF
How it was run: as §1

SRPK2(h) = SRPK2(h) (Homo sapiens, UniProt P78362)
How it was run: as §1

MST3(h) = biological target: T5, MST3(h) (Homo sapiens, UniProt Q9Y6E0)
T5 construct: gene STK24
How it was run: as §1

[1] = read-out: Residual activity (%) Spautin-1 5aa
[2] = read-out: Residual activity (%) 5as
[3] = read-out: Residual activity (%) 5at
[4] = read-out: Residual activity (%) 5ay

Blk(m), sequence (P16277 whole entry): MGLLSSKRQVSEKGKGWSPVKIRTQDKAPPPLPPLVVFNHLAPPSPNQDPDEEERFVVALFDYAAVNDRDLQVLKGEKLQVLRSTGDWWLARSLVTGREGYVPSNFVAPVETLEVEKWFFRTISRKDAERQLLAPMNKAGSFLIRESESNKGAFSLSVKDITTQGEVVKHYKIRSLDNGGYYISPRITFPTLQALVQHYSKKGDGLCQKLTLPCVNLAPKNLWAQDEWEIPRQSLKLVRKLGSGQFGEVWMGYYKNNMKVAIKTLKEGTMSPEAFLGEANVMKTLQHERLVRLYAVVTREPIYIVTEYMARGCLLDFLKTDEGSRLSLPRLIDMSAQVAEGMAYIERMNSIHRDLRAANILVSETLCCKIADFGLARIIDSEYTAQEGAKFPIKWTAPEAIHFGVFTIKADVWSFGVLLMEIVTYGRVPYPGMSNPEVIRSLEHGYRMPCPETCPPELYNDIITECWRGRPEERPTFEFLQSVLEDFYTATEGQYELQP
T5 sequence (Q9Y6E0 whole entry): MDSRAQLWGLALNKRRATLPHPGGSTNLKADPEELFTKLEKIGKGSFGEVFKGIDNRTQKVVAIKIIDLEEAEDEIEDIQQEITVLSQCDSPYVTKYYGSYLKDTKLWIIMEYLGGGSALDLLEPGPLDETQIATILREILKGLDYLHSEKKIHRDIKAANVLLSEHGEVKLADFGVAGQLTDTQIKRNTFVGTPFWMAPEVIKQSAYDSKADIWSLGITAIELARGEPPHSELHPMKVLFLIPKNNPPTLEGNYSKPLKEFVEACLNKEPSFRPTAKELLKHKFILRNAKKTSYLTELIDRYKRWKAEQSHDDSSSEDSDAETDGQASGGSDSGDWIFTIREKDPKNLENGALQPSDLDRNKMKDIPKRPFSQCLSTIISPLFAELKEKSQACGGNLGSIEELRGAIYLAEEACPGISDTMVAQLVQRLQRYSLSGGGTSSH
T2 sequence (P42684 whole entry): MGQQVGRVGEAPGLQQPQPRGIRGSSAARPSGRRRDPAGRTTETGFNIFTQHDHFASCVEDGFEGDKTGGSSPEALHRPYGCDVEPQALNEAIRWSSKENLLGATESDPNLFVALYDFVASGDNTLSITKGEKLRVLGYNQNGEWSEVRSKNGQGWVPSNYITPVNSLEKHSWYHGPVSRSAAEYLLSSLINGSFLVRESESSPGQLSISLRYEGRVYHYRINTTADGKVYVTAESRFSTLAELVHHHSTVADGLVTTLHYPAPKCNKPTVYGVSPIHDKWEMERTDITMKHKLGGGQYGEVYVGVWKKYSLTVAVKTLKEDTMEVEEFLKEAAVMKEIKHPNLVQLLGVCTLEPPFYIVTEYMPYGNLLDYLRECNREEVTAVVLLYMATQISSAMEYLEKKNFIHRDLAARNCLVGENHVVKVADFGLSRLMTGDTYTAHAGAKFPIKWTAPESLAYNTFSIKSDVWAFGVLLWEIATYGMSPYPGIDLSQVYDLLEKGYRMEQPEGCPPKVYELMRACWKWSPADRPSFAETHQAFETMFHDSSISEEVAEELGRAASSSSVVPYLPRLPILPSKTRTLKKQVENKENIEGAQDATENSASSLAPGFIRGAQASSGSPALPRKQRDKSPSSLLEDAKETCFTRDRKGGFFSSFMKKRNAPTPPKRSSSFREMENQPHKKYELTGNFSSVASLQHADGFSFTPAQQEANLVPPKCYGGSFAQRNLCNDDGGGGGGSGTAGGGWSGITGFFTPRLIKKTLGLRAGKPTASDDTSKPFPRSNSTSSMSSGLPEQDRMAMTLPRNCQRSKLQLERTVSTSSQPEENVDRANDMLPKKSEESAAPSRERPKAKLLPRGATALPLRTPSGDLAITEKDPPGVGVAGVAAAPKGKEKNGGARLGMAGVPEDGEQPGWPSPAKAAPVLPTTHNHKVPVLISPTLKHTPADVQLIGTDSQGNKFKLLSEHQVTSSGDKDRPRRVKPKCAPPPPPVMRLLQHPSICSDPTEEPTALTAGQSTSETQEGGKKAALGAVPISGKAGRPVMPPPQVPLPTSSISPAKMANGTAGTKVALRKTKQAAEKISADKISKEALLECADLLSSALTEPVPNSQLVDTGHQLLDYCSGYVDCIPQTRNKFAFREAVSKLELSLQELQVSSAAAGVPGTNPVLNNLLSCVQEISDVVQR
SRPK2(h), sequence (P78362 whole entry): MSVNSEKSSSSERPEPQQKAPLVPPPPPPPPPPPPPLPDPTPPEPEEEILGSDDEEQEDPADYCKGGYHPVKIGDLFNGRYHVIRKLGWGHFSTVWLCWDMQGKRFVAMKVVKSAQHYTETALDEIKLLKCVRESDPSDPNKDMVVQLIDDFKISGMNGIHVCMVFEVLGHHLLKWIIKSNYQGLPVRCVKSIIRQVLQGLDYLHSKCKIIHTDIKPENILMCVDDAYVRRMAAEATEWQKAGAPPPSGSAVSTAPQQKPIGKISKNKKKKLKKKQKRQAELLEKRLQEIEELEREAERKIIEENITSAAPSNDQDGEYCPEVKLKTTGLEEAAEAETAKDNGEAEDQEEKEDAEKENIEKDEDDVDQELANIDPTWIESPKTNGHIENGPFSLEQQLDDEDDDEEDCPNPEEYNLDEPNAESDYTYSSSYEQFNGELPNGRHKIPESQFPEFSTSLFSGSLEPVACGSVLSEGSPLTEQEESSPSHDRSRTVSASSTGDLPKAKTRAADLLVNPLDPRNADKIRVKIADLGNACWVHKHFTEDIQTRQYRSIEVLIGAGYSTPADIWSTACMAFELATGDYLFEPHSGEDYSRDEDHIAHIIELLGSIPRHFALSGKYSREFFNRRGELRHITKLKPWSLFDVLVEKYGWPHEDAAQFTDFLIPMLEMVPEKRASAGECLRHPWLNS

For `Fc1ccc(CNc2ncnc3ccc(F)cc23)cc1` [5aa, 6-Fluoro-N-(4-fluorobenzyl)-4-Quinazolinamine], the remaining activity at 10 µM (Blk(m); [1]) was 91%, the remaining activity at 10 µM (EphA3(h); [1]) was 116% and the remaining activity at 10 µM (Arg(h); [1]) was 79%. For the same molecule, the remaining activity at 10 µM (DYRK3(h); [1]) was 117%, the remaining activity at 10 µM (PrKX(h); [1]) was 97% and the remaining activity at 10 µM (SRPK2(h); [1]) was 80%. It also gave a remaining activity at 10 µM (MST3(h); [1]) of 80%.
Molecule `Fc1ccc(CCNc2ncnc3ccc(F)cc23)cc1` [5as, 6-Fluoro-N-[2-(4-Fluorophenyl)Ethyl]-4-Quinazolinamine] has a remaining activity at 10 µM (Blk(m); [2]) of 100%, a remaining activity at 10 µM (EphA3(h); [2]) of 108% and a remaining activity at 10 µM (Arg(h); [2]) of 82%. The remaining activity at 10 µM (DYRK3(h); [2]) was 98%, the remaining activity at 10 µM (PrKX(h); [2]) was 97% and the remaining activity at 10 µM (SRPK2(h); [2]) was 87%. For the same molecule, the remaining activity at 10 µM (MST3(h); [2]) was 89%.
For `Fc1ccc2ncnc(NCCc3ccc(Cl)cc3)c2c1` [5at, N-[2-(4-Chlorophenyl)Ethyl]-6-Fluoro-4-Quinazolinamine], the remaining activity at 10 µM (Blk(m); [3]) was 98%, the remaining activity at 10 µM (EphA3(h); [3]) was 94% and the remaining activity at 10 µM (Arg(h); [3]) was 81%. It also gave a remaining activity at 10 µM (DYRK3(h); [3]) of 98%, a remaining activity at 10 µM (PrKX(h); [3]) of 112% and a remaining activity at 10 µM (SRPK2(h); [3]) of 104%. For the same molecule, the remaining activity at 10 µM (MST3(h); [3]) was 74%.
With `COc1ccc2ncnc(Nc3cccc(F)c3)c2c1` [5ay, N-(3-Fluorophenyl)-6-Methoxy-4-Quinazolinamine] the remaining activity at 10 µM (Blk(m); [4]) was 102%, the remaining activity at 10 µM (EphA3(h); [4]) was 110% and the remaining activity at 10 µM (Arg(h); [4]) was 73%. It also gave a remaining activity at 10 µM (DYRK3(h); [4]) of 57%, a remaining activity at 10 µM (PrKX(h); [4]) of 93% and a remaining activity at 10 µM (SRPK2(h); [4]) of 80%. For the same molecule, the remaining activity at 10 µM (MST3(h); [4]) was 86%.
